Experiments:
[1] = Selectivity ratio of IC50 for HDAC3 to IC50 for IC50 for HDAC6
Histone deacetylase 3 = Histone deacetylase 3 (Homo sapiens, UniProt O15379); assay: Inhibition of HDAC3 using Fluor-de-Lys as substrate compound pretreated for 30 mins before substrate addition by fluorescence assay
[2] = molecular target: T1, Protein deacetylase HDAC6 (Homo sapiens, UniProt Q9UBN7); assay: Inhibition of HDAC6 using Fluor-de-Lys as substrate compound pretreated for 30 mins before substrate addition by fluorescence assay
T1 sequence (Q9UBN7 whole entry): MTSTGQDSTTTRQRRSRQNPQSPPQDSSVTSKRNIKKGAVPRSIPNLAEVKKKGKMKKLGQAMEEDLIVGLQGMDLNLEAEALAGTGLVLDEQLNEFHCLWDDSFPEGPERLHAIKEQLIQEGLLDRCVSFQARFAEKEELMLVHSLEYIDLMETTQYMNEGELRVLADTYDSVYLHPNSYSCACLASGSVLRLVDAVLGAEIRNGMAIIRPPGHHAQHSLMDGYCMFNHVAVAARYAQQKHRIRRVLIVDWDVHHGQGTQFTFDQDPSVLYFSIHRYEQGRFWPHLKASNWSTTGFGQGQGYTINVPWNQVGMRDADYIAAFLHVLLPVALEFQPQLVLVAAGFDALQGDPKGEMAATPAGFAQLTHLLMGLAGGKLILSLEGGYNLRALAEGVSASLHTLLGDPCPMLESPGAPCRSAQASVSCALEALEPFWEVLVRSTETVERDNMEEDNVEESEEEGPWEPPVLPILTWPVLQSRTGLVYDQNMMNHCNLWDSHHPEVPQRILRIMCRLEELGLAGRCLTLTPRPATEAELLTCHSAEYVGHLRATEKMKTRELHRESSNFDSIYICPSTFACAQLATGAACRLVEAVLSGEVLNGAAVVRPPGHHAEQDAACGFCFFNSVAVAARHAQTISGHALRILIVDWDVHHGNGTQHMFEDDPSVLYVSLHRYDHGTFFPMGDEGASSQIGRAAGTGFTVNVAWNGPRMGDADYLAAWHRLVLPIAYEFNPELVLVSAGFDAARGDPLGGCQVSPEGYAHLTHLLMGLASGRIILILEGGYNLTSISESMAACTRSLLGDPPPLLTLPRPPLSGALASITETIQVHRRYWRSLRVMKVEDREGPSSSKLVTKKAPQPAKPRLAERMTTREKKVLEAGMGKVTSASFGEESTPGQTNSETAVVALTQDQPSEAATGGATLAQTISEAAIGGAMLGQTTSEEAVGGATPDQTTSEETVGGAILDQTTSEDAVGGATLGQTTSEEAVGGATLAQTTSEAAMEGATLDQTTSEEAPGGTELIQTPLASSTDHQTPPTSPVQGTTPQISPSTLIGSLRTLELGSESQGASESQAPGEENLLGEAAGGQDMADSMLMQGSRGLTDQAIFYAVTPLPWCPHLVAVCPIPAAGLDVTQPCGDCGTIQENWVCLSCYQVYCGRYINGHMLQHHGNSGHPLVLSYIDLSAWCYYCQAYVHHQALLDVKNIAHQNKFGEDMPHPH

Histone deacetylase = assay: Inhibition of HDAC in human Hela cell lysate using Fluor-de-Lys as substrate compound pretreated for 30 mins before substrate addition by fluorescence assay; format: cell-based
Histone deacetylase 1 = Histone deacetylase 1 (Homo sapiens, UniProt Q13547); assay: Inhibition of HDAC1 using Fluor-de-Lys as substrate compound pretreated for 30 mins before substrate addition by fluorescence assay
Chain of Histone deacetylase 1 (Q13547 whole entry): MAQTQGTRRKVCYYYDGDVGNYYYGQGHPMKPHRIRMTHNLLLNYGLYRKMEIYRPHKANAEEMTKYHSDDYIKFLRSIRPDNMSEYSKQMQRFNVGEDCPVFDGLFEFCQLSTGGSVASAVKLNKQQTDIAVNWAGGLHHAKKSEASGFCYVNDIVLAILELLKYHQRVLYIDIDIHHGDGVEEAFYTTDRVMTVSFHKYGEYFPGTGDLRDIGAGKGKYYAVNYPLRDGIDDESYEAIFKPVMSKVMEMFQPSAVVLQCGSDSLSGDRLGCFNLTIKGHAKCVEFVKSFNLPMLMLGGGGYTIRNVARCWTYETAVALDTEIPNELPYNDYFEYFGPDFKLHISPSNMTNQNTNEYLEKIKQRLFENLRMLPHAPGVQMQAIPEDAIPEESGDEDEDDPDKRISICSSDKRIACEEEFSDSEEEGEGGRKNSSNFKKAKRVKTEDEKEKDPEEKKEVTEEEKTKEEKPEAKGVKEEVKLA

Chain of Histone deacetylase 3 (O15379 whole entry): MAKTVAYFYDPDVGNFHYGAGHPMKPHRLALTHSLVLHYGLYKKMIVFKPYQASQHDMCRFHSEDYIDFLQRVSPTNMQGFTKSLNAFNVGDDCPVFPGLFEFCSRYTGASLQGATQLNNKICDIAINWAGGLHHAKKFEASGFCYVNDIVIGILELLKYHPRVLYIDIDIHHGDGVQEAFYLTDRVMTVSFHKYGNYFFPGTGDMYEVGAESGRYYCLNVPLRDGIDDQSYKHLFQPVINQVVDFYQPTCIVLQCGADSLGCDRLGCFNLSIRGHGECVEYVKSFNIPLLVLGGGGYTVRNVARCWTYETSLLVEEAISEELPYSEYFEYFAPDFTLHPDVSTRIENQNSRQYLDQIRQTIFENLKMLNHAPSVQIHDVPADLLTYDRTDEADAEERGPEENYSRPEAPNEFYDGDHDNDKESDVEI

Work on `CCC(CCCCC(=O)Nc1ccccc1)CC(=O)NO` (stereo unspecified) yielded a Ratio IC50 [1] of 12.

Compound `CC(C)(C)C(CCCCC(=O)NO)CC(=O)Nc1ccccc1` (stereo unspecified) has an IC50 (Histone deacetylase 3) of 5.4 µM, an IC50 [2] of 2400 nM and an IC50 (Histone deacetylase) of 1940 nM. The Ratio IC50 [1] was 2 and the IC50 (Histone deacetylase 1) was 990 nM.
